Measurements from ChEMBL document CHEMBL3608307, “(±)-Acortatarinowins A-F, Norlignan, Neolignan, and Lignan Enantiomers from Acorus tatarinowii” (J Nat Prod, 2015).

Tested on: RAW264.7
Assay: Inhibition of LPS-induced nitric oxide production in mouse RAW264.7 cells after 24 hrs by Griess assay
Assay type: functional, cell-based
Settings: RAW264.7, 24 h

Structure (SMILES) | IC50 [µM]
COc1cc(OC)c([C@H]2[C@@H](C)[C@@H](c3cc(OC)c(OC)cc3OC)O[C@@H]2C)cc1OC | > 50
COC(=O)c1ccc(O[C@@H](C)[C@@H](O)c2cc(OC)c(OC)c(OC)c2)c(OC)c1 | 29.5
COc1cc(OC)c([C@@H]2[C@H](C)[C@H](c3cc(OC)c(OC)cc3OC)O[C@H]2C)cc1OC | > 50
COc1cc(OC)cc([C@H]2OC[C@H]3[C@@H]2CO[C@@H]3c2cc(OC)c(OC)c(OC)c2)c1 | > 50
COc1cc(OC)cc([C@@H]2OC[C@@H]3[C@H]2CO[C@H]3c2cc(OC)c(OC)c(OC)c2)c1 | 26.6
COc1cc([C@@H]2O[C@@H](c3ccc(O)c(OC)c3)[C@H](C)[C@H]2C)ccc1O | 37.8
COc1cc([C@H]2O[C@H](c3ccc(O)c(OC)c3)[C@@H](C)[C@@H]2C)ccc1O | 38
COC(=O)c1ccc(O[C@@H](C)[C@@H](O)c2ccc(OC)c(OC)c2)c(OC)c1 (relative stereo) | 23.3
COc1ccc([C@H]2OC[C@H]3[C@@H]2CO[C@@H]3c2ccc(OC)c(OC)c2)cc1OC [(+)-EUDESMIN] | > 50
C[C@@H]1C[C@H]2[C@@H]3CCC4=CC(=O)C=C[C@]4(C)[C@@]3(F)[C@@H](O)C[C@]2(C)[C@@]1(O)C(=O)CO [DEXAMETHASONE] | 0.8
COc1ccc([C@@H]2OC[C@@H]3[C@H]2CO[C@H]3c2ccc(OC)c(OC)c2)cc1OC [EUDESMINE] | > 50
